Laboratory results: patent US4463173A, “Cephalosporin derivatives” (ICI Pharma, priority 1979, dated 1984)
Converted amounts (≈) assume the structure as drawn.

Legend:
Staph. aureus = assay: MIC by agar-dilution technique, Staph. aureus A6; format: cell-based; details: Staphylococcus aureus, No. Code A6, inoculum ~10^5 CFU
From the text: (§1) As noted above the cephalosporin derivatives of the invention have antibacterial properties. Thus they are useful antibacterial agents, many of them having a broad spectrum of activity in vitro, against standard laboratory microorganisms, both Gram-negative and Gram-positive, which are used to screen for activity against pathogenic bacteria. The antibacterial spectrum and potency of a particular compound may be determined in a standard test system. […] The antibacterial activity is described in terms of the minimum inhibitory concentration (MIC) determined by agar-dilution technique with an inoculum size of ~10^5 CFU.

Serratia marescens = assay: MIC by agar-dilution technique, Serratia marescens A16; format: cell-based; details: No. Code A16, inoculum ~10^5 CFU
From the text: as §1

Ps. aeruginosa = assay: MIC by agar-dilution technique, Ps. aeruginosa A21; format: cell-based; details: Pseudomonas aeruginosa, No. Code A21, inoculum ~10^5 CFU
From the text: as §1

Proteus mirabilis = assay: MIC by agar-dilution technique, Proteus mirabilis A18; format: cell-based; details: No. Code A18, inoculum ~10^5 CFU
From the text: as §1

Ent. cloacae = assay: MIC by agar-dilution technique, Ent. cloacae A13; format: cell-based; details: Enterobacter cloacae, No. Code A13, inoculum ~10^5 CFU
From the text: as §1

Strep. pyogenes = assay: MIC by agar-dilution technique, Strep. pyogenes A1; format: cell-based; details: Streptococcus pyogenes, No. Code A1, inoculum ~10^5 CFU
From the text: as §1

K. aerogenes = assay: MIC by agar-dilution technique, K. aerogenes A10; format: cell-based; details: Klebsiella aerogenes, No. Code A10, inoculum ~10^5 CFU
From the text: as §1

E. coli = assay: MIC by agar-dilution technique, E. coli A8; format: cell-based; details: Escherichia coli, No. Code A8, inoculum ~10^5 CFU
From the text: as §1

bacterial infection = assay: mouse protection test (PD50); format: in vivo; details: subcutaneous
[1] = overt toxic symptoms or side effects in mice; format: in vivo; details: single dose of 2 g./kg.
Procedure: Similarly the compound 7-(imidazol-2-yl)amino-3-(2-methyl-1,3,4-thiadiazol-5-yl)thiomethylceph-3- em-4-carboxylic acid was administered both orally and subcutaneously to mice at a single dose of 2 g./kg.

| SMILES | MIC (Staph. aureus) [µg/mL] | MIC (Serratia marescens) [µg/mL] | MIC (Ps. aeruginosa) [µg/mL] | MIC (Proteus mirabilis) [µg/mL] | MIC (Ent. cloacae) [µg/mL] | MIC (Strep. pyogenes) [µg/mL] | MIC (K. aerogenes) [µg/mL] | MIC (E. coli) [µg/mL] | dose relative to minimum effective dose which protected 50% of the mice against bacterial infection (PD50) (bacterial infection; dose 100 mg./kg.) | further results |
| --- | --- | --- | --- | --- | --- | --- | --- | --- | --- | --- |
| CC1=C(C(=O)O)N2C(=O)[C@@H](NC3=NCCN3)[C@H]2SC1 | > 256 | 32 (≈ 113 µM) | > 256 | 256 (≈ 907 µM) | 8 (≈ 28.3 µM) | 256 (≈ 907 µM) | 8 (≈ 28.3 µM) | 8 (≈ 28.3 µM) |  |  |
| Cn1nnnc1SCC1=C(C(=O)O)N2C(=O)[C@@H](Nc3ncc[nH]3)[C@H]2SC1 [7-(imidazol-2-yl)amino-3-(1H-1-methyltetrazol-5-yl)thiomethylceph-3-em-4-carboxylic acid] |  |  |  |  |  |  |  |  | at least ten times |  |
| CC(=O)OCC1=C(C(=O)O)N2C(=O)[C@@H](Nc3nc4ccccc4[nH]3)[C@H]2SC1 | 2 (≈ 5.15 µM) | 64 (≈ 165 µM) | > 64 | 4 (≈ 10.3 µM) | > 64 | 2 (≈ 5.15 µM) | 4 (≈ 10.3 µM) | 2 (≈ 5.15 µM) |  |  |
| Cc1nnc(SCC2=C(C(=O)O)N3C(=O)[C@@H](Nc4ncc[nH]4)[C@H]3SC2)s1 [7-(imidazol-2-yl)amino-3-(2-methyl-1,3,4-thiadiazol-5-yl)thiomethylceph-3-em-4-carboxylic acid] |  |  |  |  |  |  |  |  |  | overt toxic symptoms or side effects ([1]; oral): no overt toxic symptoms or side effects were noted; overt toxic symptoms or side effects ([1]; subcutaneous): no overt toxic symptoms or side effects were noted |
| CC(=O)OCC1=C(C(=O)O)N2C(=O)[C@@H](Nc3nc(-c4ccc(N(C)C)cc4)c[nH]3)[C@H]2SC1 [3-acetoxymethyl-7-[4-(4-dimethylamino)phenylimidazol-2-yl]aminoceph-3-em-4-carboxylic acid] |  |  |  |  |  |  |  |  | at least ten times |  |
| CC(=O)OCC1=C(C(=O)O)N2C(=O)[C@@H](Nc3ncc[nH]3)[C@H]2SC1 [drawing 38] | 32 (≈ 94.6 µM) | 1 (≈ 2.96 µM) | > 256 | 32 (≈ 94.6 µM) | 4 (≈ 11.8 µM) | 16 (≈ 47.3 µM) | 0.5 (≈ 1.48 µM) | 0.12 (≈ 0.355 µM) |  |  |
| CC(=O)OCC1=C(C(=O)O)N2C(=O)[C@@H](Nc3nc4c(O)cccc4[nH]3)[C@H]2SC1 [3-acetoxymethyl-7-(4-hydroxybenzimidazol-2-yl)aminoceph-3-em-4-carboxylic acid] |  |  |  |  |  |  |  |  |  | dose relative to minimum effective dose which protected 50% of the mice against bacterial infection (PD50) (bacterial infection; dose 200 mg./kg.): at least ten times |
| CC(=O)OCC1=C(C(=O)O)N2C(=O)[C@@H](Nc3ncc[nH]3)[C@H]2SC1 [3-acetoxymethyl-7-imidazol-2-yl)aminoceph-3-em-4-carboxylic acid] |  |  |  |  |  |  |  |  | at least ten times |  |
